Measured values as given in article PMC8326117 (International Journal of Biological Sciences, 2021).
Entries after “also recorded” stand apart in the source; their conditions may differ. No end group written: not given here.

Key:
[1] = molecular target: ACE2 (Homo sapiens, UniProt Q9BYF1); conditions: cited from earlier work
[2] = test system: SARS-CoV-2 Spike-pseudovirus; conditions: in vivo
[3] = mouse, in vivo
[4] = test system: SARS-CoV-2 S-protein; format: binding
[5] = test system: HEK293T/hACE2 cells
[6] = molecular target: S-protein RBD (Severe acute respiratory syndrome coronavirus 2, UniProt P0DTC2); assay: LSPR assay, binding to S-protein RBD; set-up: species or system SARS-CoV-2; conditions: pH 7.4
Experimental: LSPR analysis. Localized Surface Plasmon Resonance (LSPR) analysis was conducted with OpenSPRTM instrument (Nicoyalife, Canada). The COOH sensor chip was firstly installed on the OpenSPRTM instrument in accordance with the standard procedure. Run the buffer at the maximum flow rate (150 μL/min) and exhaust the bubble after reaching the signal baseline. Slow down the flow rate of buffer solution (PBS, pH 7.4) to 20 µL/min, then load 200 µL EDC/NHS (20 μL /min, 4min) solution to activate COOH sensor chips. […] The injection port was rinsed with buffer solution and emptied with air. Fill with 200 µL blocking solution (20 µL/min, 4 min), wash the sample ring with buffer solution and empty it with air. Observe baseline for 5 min to ensure stability. Next, the selected peptides were diluted into a series of solutions with different concentration, which were then injected into the chip with the concentration from low to high. The kinetic parameters of the binding reactions were calculated and analyzed by using TraceDrawer software (Ridgeview Instruments AB, Sweden).

[7] = test system: SARS-CoV-2 Spike-pseudovirus; conditions: in vivo; remark: listed apart in the source
[8] = test system: SARS-CoV-2 Spike-pseudovirus; conditions: in vivo; remark: listed apart in the source

Sequence of ACE2 (Q9BYF1 18-805): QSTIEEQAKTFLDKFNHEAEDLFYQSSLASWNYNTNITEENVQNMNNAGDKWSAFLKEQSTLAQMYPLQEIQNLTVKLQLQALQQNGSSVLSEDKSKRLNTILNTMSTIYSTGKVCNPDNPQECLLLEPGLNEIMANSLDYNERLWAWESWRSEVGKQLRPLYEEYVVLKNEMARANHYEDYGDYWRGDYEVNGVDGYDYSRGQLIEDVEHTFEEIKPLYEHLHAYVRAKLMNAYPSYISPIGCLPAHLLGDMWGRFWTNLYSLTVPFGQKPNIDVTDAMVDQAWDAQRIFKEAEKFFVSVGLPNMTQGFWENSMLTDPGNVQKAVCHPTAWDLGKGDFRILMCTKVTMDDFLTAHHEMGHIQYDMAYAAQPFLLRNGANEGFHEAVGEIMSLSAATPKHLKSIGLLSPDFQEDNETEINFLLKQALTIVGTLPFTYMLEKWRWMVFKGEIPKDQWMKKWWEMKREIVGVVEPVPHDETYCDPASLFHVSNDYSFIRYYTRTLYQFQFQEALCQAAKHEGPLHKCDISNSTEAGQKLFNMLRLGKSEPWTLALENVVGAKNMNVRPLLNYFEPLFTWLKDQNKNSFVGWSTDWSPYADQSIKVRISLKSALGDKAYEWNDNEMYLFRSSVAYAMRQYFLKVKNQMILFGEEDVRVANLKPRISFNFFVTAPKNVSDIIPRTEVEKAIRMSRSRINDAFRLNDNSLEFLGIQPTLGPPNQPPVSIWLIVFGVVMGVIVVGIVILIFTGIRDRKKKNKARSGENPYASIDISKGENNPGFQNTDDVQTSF

## CN(C)CCOc1ccc(/C(=C(/CCCl)c2ccccc2)c2ccccc2)cc1 [toremifene]
[1]
  ACE2 blocking: identified to block ACE2

## COc1ccc2[nH]cc(CCNC(C)=O)c2c1 [melatonin]
[1]
  ACE2 blocking: identified to block ACE2

## S=c1[nH]cnc2nc[nH]c12 [mercaptopurine]
[1]
  ACE2 blocking: identified to block ACE2

## KKKKKKDKFNHEAEDLFY [AYn1]
[2]
  pseudovirus content in lungs (119 bp S-protein band): relative weak therapeutic effect
[3]
  distribution in livers and kidneys: not in the kidneys and livers
  distribution in lungs and small intestine: preferentially distributed in the lungs and intestine
[4]
  protein-peptide interaction in pull-down: no protein signal was detected in negative and blank control lanes
[5]
  cytotoxicity: no significant cytotoxicity
  cytotoxicity (general statement): no cytotoxicity
[6]
  koff: 0.001 s⁻¹
  kon: 10500 M⁻¹ s⁻¹
[7]
  pseudovirus infection / luciferin luminance: relatively weaker impact on pseudovirus infection; also recorded: ameliorated; also recorded: failed to prevent pseudovirus infection in vivo
[8]
  luciferase IHC staining in lungs: significantly ameliorated

## Cc1cc(O)c2c(c1)C(=O)c1cc(O)cc(O)c1C2=O [emodin]
[1]
  ACE2 blocking: identified to block ACE2
